Columns and labels:
[1] = target: T1, PI3Kδ (Homo sapiens, UniProt O00329); assay: ELISA assay for PI3Kδ: sandwich ELISA, phosphorylation of AKT (Thr308) in Raji cells; type: cell-based; conditions: for IC50: cellular, pAKT (Thr308), Raji cells, anti-Human IgM stimulation, read-out: IC50 p110δ; for α/δ ratio / β/δ ratio / γ/δ ratio: ratio of cellular IC50 values, Table 2
T1 construct: endogenous in cells; host or cells: Raji (ATCC #CCL-86)
Method: Cellular PI3Kδ activity was determined by measuring the phosphorylation of AKT (Thr308) using a sandwich enzyme-linked immunosorbant assay (ELISA). Raji (Burkitt's Lymphoma) cells were obtained from ATCC (ATCC #CCL-86). Phosphate buffer saline (PBS) contained 2.7 M NaCl, 54 mM KCl, 86 mM […] (dibasic, anhydrous), and 28 mM […] (monobasic, anhydrous) at pH 7.2. Wash buffer contained PBS supplemented with 0.05% Tween-20. Blocking buffer contained wash buffer supplemented with 1% BSA. A 10× stimulation mixture contained 5 μg/mL anti-Human IgM antibody (Sigma #12386) diluted in serum-free RPMI medium (CellGro #CV-10-040-CV). Compounds for testing were dissolved and serially diluted in 100% DMSO (total of 10 concentrations), and then diluted in serum-free RPMI to 5×final assay concentration.
Raji cells were subcultured in RPMI medium supplemented with 10% fetal bovine serum, 100 IU/mL penicillin, 100 μg/mL streptomycin, and 1×MEM non-essential amino acids. Sandwich ELISA plates were prepared by coating 96-well assay plates (Pierce #15042) with 100 μL/well capture antibody (Cell Signaling Technology #7142 or 7144) diluted in PBS. Plates were incubated overnight at 4° C., then washed with wash buffer, after which 200 μL/well blocking buffer was added to the plates and incubated at room temperature for at least 2 hrs. Raji cells were resuspended in serum-free RPMI medium and seeded into V-bottom, 2-mL 96-well blocks (Corning #3961) at 10^6 cells/well, then incubated for 2 hrs in a 37° C., 5% CO2 incubator. Compound treatment was performed by adding the 5× compound mixture to the cells and incubating for 2 hrs at 37° C., 5% CO2, after which the 10× stimulation mixture was added to the plates and incubated for 30 min at 37° C., 5% CO2. Cells were pelleted by centrifuging plates at 1500 RPM for 5 min at room temperature. Media was carefully removed and cells were lysed by adding 100 μL/well cell lysis buffer (Cell Signaling Technology #9803) supplemented with protease and phosphatase inhibitors (Thermo Fisher #78443). Plates were incubated on ice for 30 min, then the lysates (80 μL for pAKT^T308, 10 μL for total AKT) were transferred to prepared assay plates and incubated at 4° C. overnight. After washing plates with wash buffer, 100 μL/well detection antibody (Cell Signaling Technology #7142 or 7144) diluted in blocking buffer was added to the plates and incubated for 1 hr at 37° C. Plates were washed and 100 μL/well of HRP-conjugated secondary antibody (Cell Signaling Technology #7142 or 7144) diluted in blocking buffer was added to plates and incubated for 1 hr at room temperature. Plates were washed with wash buffer and 100 μL/well of luminescent substrate was added to plates. After 1 min on a plate shaker at medium speed, luminescence was read on a Wallac Victor2 plate reader. IC50 values were determined by curve fitting using a Collaborative Drug Discovery database (www.collaborativedrug.com).

[2] = target: T2, PI3Kβ (Homo sapiens, UniProt P42338); assay: ELISA assay for PI3Kβ: in-cell ELISA, phosphorylation of AKT (Ser473) in PC-3 cells; type: cell-based; conditions: for IC50: cellular, pAKT (Ser473), PC-3 cells, LPA stimulation, read-out: IC50 p110β; for α/β ratio: ratio of cellular IC50 values, Table 2
T2 construct: endogenous in cells; host or cells: PC-3 (ATCC #CRL-1435)
T2 sequence (P42338 whole entry): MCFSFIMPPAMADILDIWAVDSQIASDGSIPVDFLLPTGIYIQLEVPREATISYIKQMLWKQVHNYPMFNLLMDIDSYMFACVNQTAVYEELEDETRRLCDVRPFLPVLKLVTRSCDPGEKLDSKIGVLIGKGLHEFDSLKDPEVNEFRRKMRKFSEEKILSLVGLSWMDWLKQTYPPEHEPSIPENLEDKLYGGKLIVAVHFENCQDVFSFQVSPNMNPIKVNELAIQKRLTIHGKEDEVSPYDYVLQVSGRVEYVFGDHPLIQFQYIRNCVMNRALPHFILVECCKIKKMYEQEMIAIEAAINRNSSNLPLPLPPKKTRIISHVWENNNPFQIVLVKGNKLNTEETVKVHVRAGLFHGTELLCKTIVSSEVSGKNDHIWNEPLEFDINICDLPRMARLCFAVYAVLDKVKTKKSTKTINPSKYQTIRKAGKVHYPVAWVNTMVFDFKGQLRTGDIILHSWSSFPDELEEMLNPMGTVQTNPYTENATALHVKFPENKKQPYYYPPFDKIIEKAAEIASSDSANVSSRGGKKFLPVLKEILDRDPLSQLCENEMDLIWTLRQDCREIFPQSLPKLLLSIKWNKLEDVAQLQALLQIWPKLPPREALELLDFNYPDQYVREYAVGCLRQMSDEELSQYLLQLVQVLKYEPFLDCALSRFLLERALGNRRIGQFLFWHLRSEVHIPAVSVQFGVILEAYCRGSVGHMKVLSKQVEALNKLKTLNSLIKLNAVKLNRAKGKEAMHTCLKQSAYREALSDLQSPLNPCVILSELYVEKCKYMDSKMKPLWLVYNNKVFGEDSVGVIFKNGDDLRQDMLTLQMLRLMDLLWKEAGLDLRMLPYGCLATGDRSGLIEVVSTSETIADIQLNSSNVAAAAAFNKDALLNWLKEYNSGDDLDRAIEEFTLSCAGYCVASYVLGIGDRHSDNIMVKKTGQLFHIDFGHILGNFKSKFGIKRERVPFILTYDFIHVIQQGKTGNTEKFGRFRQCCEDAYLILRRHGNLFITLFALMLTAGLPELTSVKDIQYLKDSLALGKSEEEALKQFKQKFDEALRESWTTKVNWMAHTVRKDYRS
T2 sequence (P27986 whole entry partner): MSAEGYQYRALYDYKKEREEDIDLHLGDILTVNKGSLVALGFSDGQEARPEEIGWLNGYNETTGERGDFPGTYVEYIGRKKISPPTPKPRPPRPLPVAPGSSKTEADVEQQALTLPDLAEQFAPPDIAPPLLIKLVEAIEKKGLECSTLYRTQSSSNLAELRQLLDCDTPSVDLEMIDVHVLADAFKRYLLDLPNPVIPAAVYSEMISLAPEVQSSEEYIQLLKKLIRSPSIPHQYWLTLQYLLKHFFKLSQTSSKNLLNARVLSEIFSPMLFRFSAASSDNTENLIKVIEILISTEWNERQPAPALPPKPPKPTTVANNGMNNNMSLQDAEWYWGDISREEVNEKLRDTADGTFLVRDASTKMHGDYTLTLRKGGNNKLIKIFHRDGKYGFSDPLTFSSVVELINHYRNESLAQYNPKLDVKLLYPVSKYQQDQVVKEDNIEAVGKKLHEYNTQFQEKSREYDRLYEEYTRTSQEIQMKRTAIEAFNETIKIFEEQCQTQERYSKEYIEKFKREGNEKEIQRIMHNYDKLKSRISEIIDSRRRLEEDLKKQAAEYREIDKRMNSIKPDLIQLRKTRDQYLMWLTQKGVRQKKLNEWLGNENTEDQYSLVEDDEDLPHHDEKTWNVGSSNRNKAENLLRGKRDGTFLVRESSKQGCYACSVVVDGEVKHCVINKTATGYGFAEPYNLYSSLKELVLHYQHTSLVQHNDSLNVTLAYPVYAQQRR
Method: Cellular PI3Kβ activity was determined by measuring the phosphorylation of AKT (Ser473) using an in-cell ELISA assay. PC-3 (prostate carcinoma) cells were obtained from ATCC (ATCC #CRL-1435). Growth medium was DMEM (CellGro #CV-10-013-CV) supplemented with 10% fetal bovine serum, 100 IU/mL penicillin, 100 μg/mL streptomycin, and 1×MEM non-essential amino acids. Phosphate buffered saline (PBS) contained 2.7 M NaCl, 54 mM KCl, 86 mM […] (dibasic, anhydrous), 28 mM […] (monobasic, anhydrous), pH 7.2, 10× stimulation mixture contained 50 μM LPA (Cayman #62215) diluted in serum-free DMEM medium (CellGro #CV-10-013-CV). Compounds for testing were dissolved and serially diluted in 100% DMSO (total of 10 concentrations), then diluted in serum-free DMEM to 2× final assay concentration. 2× fixative solution contained 8% formaldehyde (Amresco #M134) diluted in PBS. Permeabilization solution contained PBS supplemented with 0.1% Triton X-100. Blocking buffer was obtained from LiCor (LiCor #927-40000). Wash buffer contained PBS supplemented with 0.1% Tween-20. Primary antibody solution was rabbit anti-pAKT^S473 monoclonal antibody (Cell Signaling #4060) and mouse anti-total S6 (Santa Cruz #74459) diluted 1:500 and 1:2000, respectively, in blocking buffer. Secondary antibody solution was IRDye 800CW-conjugated goat anti-rabbit IgG (LiCor #926-32211) and IRDye 680LT-conjugated goat anti-mouse IgG (LiCor #926-68020) diluted 1:2000 and 1:1000, respectively, in blocking buffer.
PC-3 cells were subcultured in growth medium and seeded into flat, clear bottom, 96-well plates (Corning #3904) at 16000 cells/well, then incubated overnight in a 37° C., 5% CO2 incubator. Growth medium in plates was replaced with 100 μL/well serum-free DMEM and incubated overnight in a 37° C., 5% CO2 incubator. 50 μL/well of fresh serum-free DMEM was added to plates. Compound treatment was performed by adding 50 μL/well of 2× compound mixture to plates and incubating for 2 hrs at 37° C., 5% CO2, after which 11 μL/well of 10× stimulation mixture was added and plates were incubated for 10 min at 37° C., 5% CO2. Fixation was performed by adding 110 μL/well of 2× fixative solution to plates and incubating for 20 min at room temperature. Permeabilization was performed by replacing fixation solution with 150 μL/well permeabilization solution and incubating for 10 min at room temperature. Permeabilization was repeated (for a total of 2 times). Permeabilization solution was replaced with 100 μL/well blocking buffer and plates were incubated for 1 hr at room temperature, after which 100 μL/well of primary antibody solution was added and plates were incubated overnight at 4° C. Plates were washed with wash buffer, after which 100 μL/well of secondary antibody solution was added to the plates and incubated in the dark for 1 hr at room temperature. Plates were washed with wash buffer, followed by awash with PBS. After completely removing PBS, plates were scanned on the Licor Odyssey Imager. Images quantified using Licor Odyssey application software. IC50 values were determined by curve fitting using a Collaborative Drug Discovery database (www.collaborativedrug.com).

[3] = target: mTOR (Homo sapiens, UniProt P42345); assay: mTOR inhibition (Table 1); type: biochemical; conditions: Table 1, no method described

T1 sequence (O00329 whole entry): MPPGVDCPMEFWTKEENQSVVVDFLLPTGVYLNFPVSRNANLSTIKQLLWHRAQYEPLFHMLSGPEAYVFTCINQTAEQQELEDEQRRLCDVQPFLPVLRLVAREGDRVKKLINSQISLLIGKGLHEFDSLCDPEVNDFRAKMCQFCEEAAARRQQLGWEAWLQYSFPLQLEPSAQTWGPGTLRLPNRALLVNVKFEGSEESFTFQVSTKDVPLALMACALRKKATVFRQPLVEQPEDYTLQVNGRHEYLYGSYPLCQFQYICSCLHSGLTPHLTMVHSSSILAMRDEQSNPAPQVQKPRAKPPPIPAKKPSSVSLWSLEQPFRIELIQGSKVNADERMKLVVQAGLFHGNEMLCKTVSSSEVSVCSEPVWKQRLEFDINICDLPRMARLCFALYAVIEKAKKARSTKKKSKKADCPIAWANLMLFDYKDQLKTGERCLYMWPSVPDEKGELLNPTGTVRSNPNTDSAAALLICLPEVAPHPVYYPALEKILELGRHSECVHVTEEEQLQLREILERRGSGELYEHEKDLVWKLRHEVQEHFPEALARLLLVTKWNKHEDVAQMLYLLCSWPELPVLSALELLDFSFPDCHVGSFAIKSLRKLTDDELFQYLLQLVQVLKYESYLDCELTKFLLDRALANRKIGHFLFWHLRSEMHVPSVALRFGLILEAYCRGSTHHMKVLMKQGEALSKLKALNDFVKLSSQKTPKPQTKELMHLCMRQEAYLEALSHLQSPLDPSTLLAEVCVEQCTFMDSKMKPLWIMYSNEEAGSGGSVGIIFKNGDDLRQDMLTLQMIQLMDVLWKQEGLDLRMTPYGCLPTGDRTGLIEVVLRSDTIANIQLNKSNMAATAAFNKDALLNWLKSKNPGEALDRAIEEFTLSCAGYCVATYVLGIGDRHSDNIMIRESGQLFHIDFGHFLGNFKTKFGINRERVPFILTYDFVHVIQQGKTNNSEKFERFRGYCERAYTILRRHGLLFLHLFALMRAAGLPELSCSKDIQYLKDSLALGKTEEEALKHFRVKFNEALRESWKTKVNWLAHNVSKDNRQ
T1 sequence (P27986 whole entry partner): as the sequence (P27986 whole entry partner) above

| SMILES | IC50 [1] | α/δ ratio [1] | β/δ ratio [1] | γ/δ ratio [1] | IC50 [2] | α/β ratio [2] | IC50 [3] |
| --- | --- | --- | --- | --- | --- | --- | --- |
| CC(C)(Cc1ccccc1)Nc1nc(N2CCOCC2)nc(-n2c(C(F)F)nc3ccccc32)n1 [Compound A14, 4-(2-(difluoromethyl)-1H-benzo[d]imidazol-1-yl)-N-(2-methyl-1-phenylpropan-2-yl)-6-morpholino-1,3,5-triazin-2-amine] | ≤ 100 nM | A’ | A’ | A’ | ≤ 100 nM | B’ | > 500 nM |
| CC(C)(Cc1ccccc1F)Nc1nc(N2CCOCC2)nc(-n2c(C(F)F)nc3ccccc32)n1 [Compound A15, 4-(2-(difluoromethyl)-1H-benzo[d]imidazol-1-yl)-N-(1-(2-fluorophenyl)-2-methylpropan-2-yl)-6-morpholino-1,3,5-triazin-2-amine] | ≤ 100 nM | A’ | C’ | A’ | ≤ 100 nM | C’ | > 500 nM |
| CC(C)(Cc1ccccc1Cl)Nc1nc(N2CCOCC2)nc(-n2c(C(F)F)nc3ccccc32)n1 [Compound A16, 4-(2-(difluoromethyl)-1H-benzo[d]imidazol-1-yl)-N-(1-(2-chlorophenyl)-2-methylpropan-2-yl)-6-morpholino-1,3,5-triazin-2-amine] | ≤ 100 nM | A’ | A’ | A’ | ≤ 100 nM | B’ | > 500 nM |
| Cc1ccccc1CC(C)(C)Nc1nc(N2CCOCC2)nc(-n2c(C(F)F)nc3ccccc32)n1 [Compound A18, 4-(2-(difluoromethyl)-1H-benzo[d]imidazol-1-yl)-N-(2-methyl-1-(o-tolyl)propan-2-yl)-6-morpholino-1,3,5-triazin-2-amine] | ≤ 100 nM | A’ | A’ | A’ | ≤ 100 nM | C’ | > 500 nM |
| COc1ccccc1CC(C)(C)Nc1nc(N2CCOCC2)nc(-n2c(C(F)F)nc3ccccc32)n1 [Compound A19, 4-(2-(difluoromethyl)-1H-benzo[d]imidazol-1-yl)-N-(1-(2-methoxyphenyl)-2-methylpropan-2-yl)-6-morpholino-1,3,5-triazin-2-amine] | ≤ 100 nM | – | D’ | – | ≤ 100 nM | – | > 500 nM |
| COc1cccc(CC(C)(C)Nc2nc(N3CCOCC3)nc(-n3c(C(F)F)nc4ccccc43)n2)c1 [Compound A21, 4-(2-(difluoromethyl)-1H-benzo[d]imidazol-1-yl)-N-(1-(3-methoxyphenyl)-2-methylpropan-2-yl)-6-morpholino-1,3,5-triazin-2-amine] | ≤ 100 nM | A’ | A’ | A’ | 100 to 200 nM | A’ | > 500 nM |
| CC(C)(Cc1ccc(F)cc1)Nc1nc(N2CCOCC2)nc(-n2c(C(F)F)nc3ccccc32)n1 [Compound A22, 4-(2-(difluoromethyl)-1H-benzo[d]imidazol-1-yl)-N-(1-(4-fluorophenyl)-2-methylpropan-2-yl)-6-morpholino-1,3,5-triazin-2-amine] | ≤ 100 nM | A’ | A’ | A’ | ≤ 100 nM | C’ | > 500 nM |
| CC(C)(Cc1cccc2ccccc12)Nc1nc(N2CCOCC2)nc(-n2c(C(F)F)nc3ccccc32)n1 [Compound A27, 4-(2-(difluoromethyl)-1H-benzo[d]imidazol-1-yl)-N-(2-methyl-1-(naphthalen-1-yl)propan-2-yl)-6-morpholino-1,3,5-triazin-2-amine] | ≤ 100 nM | – | C’ | – | ≤ 100 nM | – | > 500 nM |
| CC(C)(Cc1ccccc1-c1ccncc1)Nc1nc(N2CCOCC2)nc(-n2c(C(F)F)nc3ccccc32)n1 [Compound A33, 4-(2-(difluoromethyl)-1H-benzo[d]imidazol-1-yl)-N-(2-methyl-1-(2-(pyridin-4-yl)phenyl)propan-2-yl)-6-morpholino-1,3,5-triazin-2-amine] | ≤ 100 nM | – | A’ | A’ | ≤ 100 nM | – | > 500 nM |
| CN1CCC(c2ccccc2CC(C)(C)Nc2nc(N3CCOCC3)nc(-n3c(C(F)F)nc4ccccc43)n2)CC1 [Compound A35, 4-(2-(difluoromethyl)-1H-benzo[d]imidazol-1-yl)-N-(2-methyl-1-(2-(1-methylpiperidin-4-yl)phenyl)propan-2-yl)-6-morpholino-1,3,5-triazin-2-amine] | ≤ 100 nM | A’ | A’ | A’ | ≤ 100 nM | A’ | > 500 nM |
| CN1CCC(c2ccccc2CC(C)(C)Nc2nc(N3CCOCC3)nc(-n3c(C(F)F)nc4ccccc43)n2)C1 (centres unmarked) [Compound A75, 4-(2-(difluoromethyl)-1H-benzo[d]imidazol-1-yl)-N-(2-methyl-1-(2-(1-methylpyrrolidin-3-yl)phenyl)propan-2-yl)-6-morpholino-1,3,5-triazin-2-amine] | ≤ 100 nM | A’ | B’ | A’ | ≤ 100 nM | A’ | – |

Reference: patent US12059422B2 (MEI Pharma, Inc., priority 2011, dated 2024)
